Assay results published in US11566032B2, “Radio-protective and chemo-protective substituted thiols” (TONIX PHARMACEUTICALS, INC., priority 2020, dated 2023).

Columns and labels:
[1] = Exposure of the solid salt to the atmosphere (hygroscopicity); assay type: physicochemical; conditions: 10 minute exposure of a small amount to the atmosphere, diHCl salt
Method: Concentration (rotary evaporator at ambient temperature) provided a crude oily residue which was triturated with hexane producing a white solid. The hexane was removed (via pipette suction) and replaced with dry THE (25 ml). After an additional 10 minutes of trituration, the THF was removed and replaced with dry hexane (25 ml). After an additional 10 minutes of trituration, the hexane was removed and the resulting white solid was dried in vacuo over P2O5 providing 1.95 grams of diHCl salt of PrC-210 (88%).
In Reaction J: 34 ml of HCl in methanol, 6 eq. (1.25 M solution, Aldrich Cat #17935) was added to a solution of compound X, 2.5 grams, 0.007 moles dissolved in 10 mL dry methanol in a flask under argon and equipped for magnetic stirring and the reaction was stirred at room temperature for 24 hours. […] The solution was degassed by gently bubbling argon into the solution for 30 minutes. […]
In Reaction P: Compound XVI, 2.2 grams, 0.0058 moles was placed in a round-bottom flask equipped for magnetic stirring followed by 15 mL anhydrous trifluoroacetic acid (CF3COOH, Aldrich #8.08260). The flask was fitted with a condenser and the solution was refluxed for 5 hours whereupon it was determined that the reaction was complete using TLC by observing the disappearance of starting material and the appearance of a highly polar product, which stained positive with ninhydrin. […]

[2] = test system: male mice exposed to total body irradiation (TBI); assay: Phase 2 efficacy: survival of mice dosed prior to total body irradiation (TBI) at LD100/30; assay type: in vivo; conditions: for median survival time / animals survived until scheduled sacrifice (Day 30) / mice found dead / mice moribund sacrificed: 1000 mg/kg oral gavage prior to TBI 9.9 Gy; for median survival time: 11 male mice per group; for body weight gain: Days 5 to 9 after TBI 9.9 Gy, compared to the vehicle group; for survival of animals through 30 days post exposure: treated prior to total body irradiation (LD100/30)
Method: (§1) Male mice were randomized and assessed in two phases: 1) for maximum tolerated doses (MTDs) of PrC-210, DzCH2SH, and 2Pip-2PrSH to determine dose levels for the efficacy study and 2) to evaluate the efficacy of the compounds when administered 60+5 minutes prior to exposure to total body irradiation (TBI) at an LD100/30 dose (990 cGy) (Tables 1 and 2).
(§2) For Phase 1 or 2, sterile water (vehicle), PrC-210, DzCH2SH, and 2Pip2PrSH were administered at 10 mL/kg calculated based on the most recent body weight via oral gavage. Animals were not fasted prior to administration of the compounds or vehicle. Mice in Phase 1 were administered the dose on Day 1 and mice in Phase 2 were administered the dose 60+5 minutes prior to TBI on Day 0.
Irradiation was administered once to the whole body. TBI of mice were performed using a 6 MV LINAC photon source (TrueBeam STx source). Animals were irradiated at a dose rate of up to 80 cGy/min to the midline of the animals. The source irradiated animals to 50% of the dose from anterior-posterior direction and […] from the posterior-anterior direction. Dose measurements were performed with a PTW 31010 0.1 cc Semiflex Ion chamber.
(§3) All surviving animals were observed once daily for clinical signs (e.g., unusually low or high activity, lethargy, shivering, appearance of fur, bloody and water stool, and other symptoms of moribundity) at 1-2 hours post-irradiation and/or post-dose and once daily on non-dosing days until Day 4 (Phase 1) or Day 30 (Phase 2).
In Phase 2 (Table 2), survival curves of mice treated with vehicle, PrC-210, DzCH2SH or 2Pip-PrSH prior to TBI with 9.9 Gy were measured (FIG. 1). […] Five mice were moribund sacrificed, and 6 mice were found dead. Survival in the Group 13 animals was 0% and median survival time was 8 days. In mice administered with PrC-210 before TBI (Group 14), 4 animals survived until scheduled sacrifice (Day 30) while 7 mice were moribund sacrificed. […] In mice administered with DzCH2SH before TBI (Group 15), 3 animals survived until scheduled sacrifice (Day 30) while 7 mice were moribund sacrificed, and one mouse was found dead. […] Five mice were moribund sacrificed and six mice were found dead. Survival in the Group 16 mice was 0% and median survival time was 10 days.

[3] = Phase 1 maximum tolerated dose (MTD) in mice, oral gavage; assay type: in vivo; conditions: 1,000 mg/kg, male mice
Method: as §1, §2, §3
In Phase 1 (Table 1), all animals were normal when observed and all body weights were within normal range. The dose level of 1000 mg/kg was selected for Phase 2.

[4] = in vivo; cited from earlier work
[5] = test system: mice exposed to whole body irradiation; assay: Radiation dose required to kill 50% of mice (LD50), whole body irradiation; assay type: in vivo; conditions: oral gavage 60 minutes prior to whole body irradiation 2-12 Gy, 30 days
Method: The affect of the compounds according to the disclosure on the dose of radiation required to kill 50% of mice (LD50) is assessed.
Mice are assigned to three groups (Groups 1, 2 and 3). A control group, Group 1, is treated via oral gavage with vehicle (Lactated Ringer's and 5% dextrose, adjusted to pH 7.3 with sodium bicarbonate) 60 minutes prior to whole body irradiation (2 Gy). Group 2 is treated via oral gavage with PrC-210, as a positive control, dissolved in Lactated Ringer's at a dose of 200 mg/kg 60 minutes prior to whole body irradiation (2 Gy). Group 3 is treated via oral gavage with compound 1 (PrC-210-PT) dissolved in Lactated Ringer's at a dose of 308 mg/kg 60 minutes prior to whole body irradiation (2 Gy). The mortality of the three groups is assessed for 30 days post irradiation.
The experiment is repeated using varying radiation doses of 4, 6, 8, 10 and 12 Gy. The LD50 for each group was determined.
The experiment is repeated to assess compounds 2-23 as radioprotectors.

[6] = test system: mice exposed to 8 Gy (LD100) radiation; assay: Protection of mice from lethal radiation (8 Gy, LD100); assay type: in vivo; conditions: oral gavage 15-90 minutes prior to 8 Gy (LD100), 60 days post irradiation
Method: The radioprotective efficacy of the thiols, prodrugs and double prodrugs according to this disclosure is assessed in mice. The compounds of the disclosure are administered via oral gavage to mice, and are compared to mice that have been administered 3-(methylamino)-2-(methylaminomethyl)propane-1-thiol (PrC-210), as well as to a control group or mice that are administered vehicle (i.e., containing no radioprotective additive).
More specifically, mice are assigned to three groups (Groups 1, 2 and 3). A control group, Group 1, is treated via oral gavage with vehicle (Lactated Ringer's and 5% dextrose, adjusted to pH 7.3 with sodium bicarbonate) 15-90 minutes prior to a dose of 8 Gy (LD100) radiation. Group 2 is treated via oral gavage with PrC-210, as a positive control, dissolved in Lactated Ringer's at a dose of 200 mg/kg 15-90 minutes prior to irradiation with 8 Gy (LD100). Group 3 is treated via oral gavage with compound 1 (PrC-210-PT) dissolved in Lactated Ringer's at a dose of 308 mg/kg 15-90 minutes prior to irradiation with 8 Gy (LD100). The mortality of the three groups is assessed for 60 days post irradiation. The experiment is repeated with doses of PrC-210 ranging from 200 mg/kg to 450 mg/kg. Molar equivalent dosages of the test compound (compound 1, Prc-210-PT) to PrC-210 are also assessed.
The experiment is repeated to assess the efficacy of compounds 2-23 as radioprotectors.

[7] = clinical signs after TBI 9.9 Gy, of 11 mice

Row | SMILES | signs of hygroscopicity [1] | median survival time [2] | animals survived until scheduled sacrifice (Day 30) ([2]; of 11 mice) | mice found dead ([2]; of 11 mice) | mice moribund sacrificed ([2]; of 11 mice) | body weight gain [2] | Cold to touch skin, number of animals [2, 7] | Eye discharge, number of animals [2, 7] | Hypoactivity, number of animals [2, 7] | Lethargy and swollen head, number of mice [2, 7] | Swollen eye, number of animals [2, 7] | survival of animals through 30 days post exposure [2] | toxicity at the highest tested dose [3] | further results
1 | SCC1CNCCNC1 [DzCH2SH, (1,4-diazepan-6-yl)methanethiol] | did not show any signs of hygroscopicity | 11 days | 3 | one | 7 | did not gain body weights | one | 2 | 5 | one | 2 | increased survival | did not produce any toxicity | mortality rate at 8-days post-irradiation ([2]; 1000 mg/kg oral gavage prior to TBI 990 cGy): efficacious effects; Eye opacity, number of mice [2, 7]: one; Labored breathing, number of mice [2, 7]: one; eye cloudy, number of animals [2, 7]: 2; sunken eye, number of animals [2, 7]: 1
2 | CNCC(CS)CNC [PrC-210, 3-(methylamino)-2-((methylamino)methyl)propane-1-thiol, reference compound] | did not show any signs of hygroscopicity | 11 days | 4 | – | 7 | significantly higher | – | one | 5 | – | one | increased survival | did not produce any toxicity | side effects compared with Amifostine [4]: less side effects than Amifostine; mean body weight ([2]; Day 9 after TBI 9.9 Gy): higher than body weights in the Groups 13, 15 and 16; Tremor, number of mice [2, 7]: 4; LD50 (radiation dose), control group versus treated mice [5]: control group demonstrates a lower LD50 compared to the mice treated; rate of survival, control group versus treated mice [6]: control group demonstrates a reduced rate of survival compared to the mice treated
3 | CC(C)(S)C1CNCCN1 (stereo not drawn) [Compound 2Pip-2PrSH, 2-(piperazin-2-yl)propane-2-thiol] | – | 10 days | no animals survived | six | Five | did not gain body weights | 4 | one | 5 | one | one | – | did not produce any toxicity | Survival ([2]; 1000 mg/kg oral gavage 60+5 minutes prior to TBI 9.9 Gy (LD100/30), Day 30, 11 male mice per group): 0%
